The conditions of the data set: for Solubility in ACN / Solubility in CHCl3 / Solubility in EA: 80 mg/ml. The source says: It is critical to select the right solvent for the one-step reaction to obtain L-carnitineMA monomer. Acryloyl chloride has to be dissolved in a non-protic solvent to preserve its reactivity.

Where a name gives a salt, the structure may show the parent alone. Read-outs that look alike come from different tables or passages of the source.

Consider `C[N+](C)(C)C[C@H](O)CC(=O)[O-].Cl` [L-carnitine hydrochloride], for which, where the note is “40° C.”, the “Solubility in ACN” value is “No (No: not soluble)” and the “Solubility in EA” value was “No (No: not soluble)”. Under “80° C.”, the “Solubility in ACN” value is on record as “No (No: not soluble)”, the “Solubility in EA” value was “No (No: not soluble)” and the “Solubility in DMF (in words)” value is given as “partially dissolved”. In addition, the “Solubility in CHCl3” value (CHCl3, 40° C.) was “No (No: not soluble)”. The “Solubility in CHCl3” value (CHCl3, 80° C.) is on record as “No (No: not soluble)”.

In the case of `C[N+](C)(C)C[C@H](O)CC(=O)[O-]` [L-carnitine inner-salt], under “40° C.”, the “Solubility in ACN” value is given as “No (No: not soluble)” and the “Solubility in EA” value is “No (No: not soluble)”. Further, for the setting “80° C.”, the “Solubility in ACN” value is “No (No: not soluble)”, the “Solubility in EA” value is listed as “No (No: not soluble)” and the “Solubility in DMF (in words)” value is “totally insoluble”. The “Solubility in CHCl3” value (CHCl3, 40° C.) was “No (No: not soluble)”. Also, the “Solubility in CHCl3” value (CHCl3, 80° C.) is given as “No (No: not soluble)”.

The values are drawn from patent publication US11103588B2, “Methods and compositions relating to carnitine-derived materials” (Wayne State University, priority 2017, dated 2021).
